The assay relates to RS4;11 cells. In words: Cell viability assay (CellTiter-Glo) in RS4;11 cells. It counts as cell-based. The conditions noted are these: Homo sapiens, 72 h; RS4;11 cells; cell viability, 3 days, CellTiter-Glo; read-out: IC50. An outline of the steps: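 Three-day compound treatment of RS4;11 ALL cells (5000/well, 3-fold dilution series of 8 or 12 points), with IC50 from a nonlinear least-squares fit to CellTiter-Glo viability data.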
In general terms: ATP-based viability assays read luminescence as a measure of living cells.
As to `Cc1ncsc1-c1ccc(CNC(=O)[C@@H]2C[C@@H](O)CN2C(=O)[C@@H](NC(=O)COCCNC(=O)CN2CCC(n3cc(-c4cnc5cccc(-c6cc(F)c(CN7CCOCC7)c(F)c6)c5n4)cn3)CC2)C(C)(C)C)cc1` [JA-153, (2S,4R)-1-((S)-2-(2-(2-(2-(4-(4-(8-(3,5-Difluoro-4-(morpholinomethyl)phenyl)quinoxalin-2-yl)-1H-pyrazol-1-yl)piperidin-1-yl)acetamido)ethoxy)acetamido)-3,3-dimethylbutanoyl)-4-hydroxy-N-(4-(4-methylthiazol-5-yl)benzyl)pyrrolidine-2-carboxamide], the IC50 (usually the concentration that gives 50% inhibition) was above 10 µM. Turning to `O=C(CN1CCC(n2cc(-c3cnc4cccc(-c5cc(F)c(CN6CCOCC6)c(F)c5)c4n3)cn2)CC1)NCCCNc1cccc2c1C(=O)N(C1CCC(=O)NC1=O)C2=O` (stereo not shown) [JA-154, 2-(4-(4-(8-(3,5-Difluoro-4-(morpholinomethyl)phenyl)quinoxalin-2-yl)-1H-pyrazol-1-yl)piperidin-1-yl)-N-(3-((2-(2,6-dioxopiperidin-3-yl)-1,3-dioxoisoindolin-4-yl)amino)propyl)acetamide], the half-maximal inhibitory concentration (IC50) worked out at 1.41 µM.

As to `Cc1ncsc1-c1ccc(CNC(=O)[C@@H]2C[C@@H](O)CN2C(=O)[C@@H](NC(=O)CCNC(=O)CN2CCC(n3cc(-c4cnc5cccc(-c6cc(F)c(CN7CCOCC7)c(F)c6)c5n4)cn3)CC2)C(C)(C)C)cc1` [JA-155, (2S,4R)-1-((S)-2-(3-(2-(4-(4-(8-(3,5-Difluoro-4-(morpholinomethyl)phenyl)quinoxalin-2-yl)-1H-pyrazol-1-yl)piperidin-1-yl)acetamido)propanamido)-3,3-dimethylbutanoyl)-4-hydroxy-N-(4-(4-methylthiazol-5-yl)benzyl)pyrrolidine-2-carboxamide], the IC50 was above 10 µM. In the case of `Cc1ncsc1-c1ccc(CNC(=O)[C@@H]2C[C@@H](O)CN2C(=O)[C@@H](NC(=O)CCCCCCCNC(=O)CN2CCC(n3cc(-c4cnc5cccc(-c6cc(F)c(CN7CCOCC7)c(F)c6)c5n4)cn3)CC2)C(C)(C)C)cc1` [JA-156, (2S,4R)-1-((S)-2-(8-(2-(4-(4-(8-(3,5-Difluoro-4-(morpholinomethyl)phenyl)quinoxalin-2-yl)-1H-pyrazol-1-yl)piperidin-1-yl)acetamido)octanamido)-3,3-dimethylbutanoyl)-4-hydroxy-N-(4-(4-methylthiazol-5-yl)benzyl)pyrrolidine-2-carboxamide] it was 3.66 µM; in that of `Cc1ncsc1-c1ccc(CNC(=O)[C@@H]2C[C@@H](O)CN2C(=O)[C@@H](NC(=O)COCCOCCOCCNC(=O)CN2CCC(n3cc(-c4cnc5cccc(-c6cc(F)c(CN7CCOCC7)c(F)c6)c5n4)cn3)CC2)C(C)(C)C)cc1` [JA-157, (2S,4R)-1-((S)-2-(tert-Butyl)-17-(4-(4-(8-(3,5-Difluoro-4-(morpholinomethyl)phenyl)quinoxalin-2-yl)-1H-pyrazol-1-yl)piperidin-1-yl)-4,16-dioxo-6,9,12-trioxa-3,15-diazaheptadecanoyl)-4-hydroxy-N-(4-(4-methylthiazol-5-yl)benzyl)pyrrolidine-2-carboxamide], above 10 µM.

With `Cc1ncsc1-c1ccc(CNC(=O)[C@@H]2C[C@@H](O)CN2C(=O)[C@@H](NC(=O)CNC(=O)CN2CCC(n3cc(-c4cnc5cccc(-c6cc(F)c(CN7CCOCC7)c(F)c6)c5n4)cn3)CC2)C(C)(C)C)cc1` [JA-158, (2S,4R)-1-((S)-2-(2-(2-(4-(4-(8-(3,5-Difluoro-4-(morpholinomethyl)phenyl)quinoxalin-2-yl)-1H-pyrazol-1-yl)piperidin-1-yl)acetamido)acetamido)-3,3-dimethylbutanoyl)-4-hydroxy-N-(4-(4-methylthiazol-5-yl)benzyl)pyrrolidine-2-carboxamide], the IC50 is above 10 µM. For the compound `Cc1ncsc1-c1ccc(CNC(=O)[C@@H]2C[C@@H](O)CN2C(=O)[C@@H](NC(=O)CCOCCOCCOCCOCCOCCNC(=O)CN2CCC(n3cc(-c4cnc5cccc(-c6cc(F)c(CN7CCOCC7)c(F)c6)c5n4)cn3)CC2)C(C)(C)C)cc1` [JA-159, (2S,4R)-1-((S)-23-(tert-Butyl)-1-(4-(4-(8-(3,5-difluoro-4-(morpholinomethyl)phenyl)quinoxalin-2-yl)-1H-pyrazol-1-yl)piperidin-1-yl)-2,21-dioxo-6,9,12,15,18-pentaoxa-3,22-diazatetracosan-24-oyl)-4-hydroxy-N-(4-(4-methylthiazol-5-yl)benzyl)pyrrolidine-2-carboxamide], the IC50 was above 10 µM. In the case of `Cc1ncsc1-c1ccc(CNC(=O)[C@@H]2C[C@@H](O)CN2C(=O)[C@@H](NC(=O)CCOCCNC(=O)CN2CCC(n3cc(-c4cnc5cccc(-c6cc(F)c(CN7CCOCC7)c(F)c6)c5n4)cn3)CC2)C(C)(C)C)cc1` [JA-160, (2S,4R)-1-((S)-2-(3-(2-(2-(4-(4-(8-(3,5-Difluoro-4-(morpholinomethyl)phenyl)quinoxalin-2-yl)-1H-pyrazol-1-yl)piperidin-1-yl)acetamido)ethoxy)propanamido)-3,3-dimethylbutanoyl)-4-hydroxy-N-(4-(4-methylthiazol-5-yl)benzyl)pyrrolidine-2-carboxamide] it was above 10 µM; in that of `Cc1ncsc1-c1ccc(CNC(=O)[C@@H]2C[C@@H](O)CN2C(=O)[C@@H](NC(=O)CCCCCCCCNC(=O)CN2CCC(n3cc(-c4cnc5cccc(-c6cc(F)c(CN7CCOCC7)c(F)c6)c5n4)cn3)CC2)C(C)(C)C)cc1` [JA-161, (2S,4R)-1-((S)-2-(9-(2-(4-(4-(8-(3,5-Difluoro-4-(morpholinomethyl)phenyl)quinoxalin-2-yl)-1H-pyrazol-1-yl)piperidin-1-yl)acetamido)nonanamido)-3,3-dimethylbutanoyl)-4-hydroxy-N-(4-(4-methylthiazol-5-yl)benzyl)pyrrolidine-2-carboxamide], 2.37 µM. The figure for `Cc1ncsc1-c1ccc(CNC(=O)[C@@H]2C[C@@H](O)CN2C(=O)[C@@H](NC(=O)CCOCCOCCNC(=O)CN2CCC(n3cc(-c4cnc5cccc(-c6cc(F)c(CN7CCOCC7)c(F)c6)c5n4)cn3)CC2)C(C)(C)C)cc1` [JA-162, (2S,4R)-1-((S)-14-(tert-Butyl)-1-(4-(4-(8-(3,5-difluoro-4-(morpholinomethyl)phenyl)quinoxalin-2-yl)-1H-pyrazol-1-yl)piperidin-1-yl)-2,12-dioxo-6,9-dioxa-3,13-diazapentadecan-15-oyl)-4-hydroxy-N-(4-(4-methylthiazol-5-yl)benzyl)pyrrolidine-2-carboxamide] is above 10 µM; for `Cc1ncsc1-c1ccc(CNC(=O)[C@@H]2C[C@@H](O)CN2C(=O)[C@@H](NC(=O)COCCOCCNC(=O)CN2CCC(n3cc(-c4cnc5cccc(-c6cc(F)c(CN7CCOCC7)c(F)c6)c5n4)cn3)CC2)C(C)(C)C)cc1` [JA-163, (2S,4R)-1-((S)-2-(tert-Butyl)-14-(4-(4-(8-(3,5-difluoro-4-(morpholinomethyl)phenyl)quinoxalin-2-yl)-1H-pyrazol-1-yl)piperidin-1-yl)-4,13-dioxo-6,9-dioxa-3,12-diazatetradecanoyl)-4-hydroxy-N-(4-(4-methylthiazol-5-yl)benzyl)pyrrolidine-2-carboxamide] it is above 10 µM. In the case of `Cc1ncsc1-c1ccc(CNC(=O)[C@@H]2C[C@@H](O)CN2C(=O)[C@@H](NC(=O)CCCCCNC(=O)CN2CCC(n3cc(-c4cnc5cccc(-c6cc(F)c(CN7CCOCC7)c(F)c6)c5n4)cn3)CC2)C(C)(C)C)cc1` [JA-164, (2S,4R)-1-((S)-2-(6-(2-(4-(4-(8-(3,5-Difluoro-4-(morpholinomethyl)phenyl)quinoxalin-2-yl)-1H-pyrazol-1-yl)piperidin-1-yl)acetamido)hexanamido)-3,3-dimethylbutanoyl)-4-hydroxy-N-(4-(4-methylthiazol-5-yl)benzyl)pyrrolidine-2-carboxamide] it was above 10 µM.

Consider `Cc1ncsc1-c1ccc(CNC(=O)[C@@H]2C[C@@H](O)CN2C(=O)[C@@H](NC(=O)CCCCCCNC(=O)CN2CCC(n3cc(-c4cnc5cccc(-c6cc(F)c(CN7CCOCC7)c(F)c6)c5n4)cn3)CC2)C(C)(C)C)cc1` [JA-165, (2S,4R)-1-((S)-2-(7-(2-(4-(4-(8-(3,5-Difluoro-4-(morpholinomethyl)phenyl)quinoxalin-2-yl)-1H-pyrazol-1-yl)piperidin-1-yl)acetamido)heptanamido)-3,3-dimethylbutanoyl)-4-hydroxy-N-(4-(4-methylthiazol-5-yl)benzyl)pyrrolidine-2-carboxamide], for which the half-inhibitory concentration (IC50) was above 10 µM. On to `Cc1ncsc1-c1ccc(CNC(=O)[C@@H]2C[C@@H](O)CN2C(=O)[C@@H](NC(=O)CCCCCCCCCNC(=O)CN2CCC(n3cc(-c4cnc5cccc(-c6cc(F)c(CN7CCOCC7)c(F)c6)c5n4)cn3)CC2)C(C)(C)C)cc1` [JA-166, (2S,4R)-1-((S)-2-(10-(2-(4-(4-(8-(3,5-Difluoro-4-(morpholinomethyl)phenyl)quinoxalin-2-yl)-1H-pyrazol-1-yl)piperidin-1-yl)acetamido)decanamido)-3,3-dimethylbutanoyl)-4-hydroxy-N-(4-(4-methylthiazol-5-yl)benzyl)pyrrolidine-2-carboxamide], for which the IC50 was 4.45 µM. The figure for `Cc1ncsc1-c1ccc(CNC(=O)[C@@H]2C[C@@H](O)CN2C(=O)[C@@H](NC(=O)CCOCCOCCOCCOCCNC(=O)CN2CCC(n3cc(-c4cnc5cccc(-c6cc(F)c(CN7CCOCC7)c(F)c6)c5n4)cn3)CC2)C(C)(C)C)cc1` [JA-167, (2S,4R)-1-((S)-20-(tert-Butyl)-1-(4-(4-(8-(3,5-difluoro-4-(morpholinomethyl)phenyl)quinoxalin-2-yl)-1H-pyrazol-1-yl)piperidin-1-yl)-2,18-dioxo-6,9,12,15-tetraoxa-3,19-diazahenicosan-21-oyl)-4-hydroxy-N-(4-(4-methylthiazol-5-yl)benzyl)pyrrolidine-2-carboxamide] is above 10 µM; for `Cc1ncsc1-c1ccc(CNC(=O)[C@@H]2C[C@@H](O)CN2C(=O)[C@@H](NC(=O)CCCCNC(=O)CN2CCC(n3cc(-c4cnc5cccc(-c6cc(F)c(CN7CCOCC7)c(F)c6)c5n4)cn3)CC2)C(C)(C)C)cc1` [JA-168, (2S,4R)-1-((S)-2-(5-(2-(4-(4-(8-(3,5-Difluoro-4-(morpholinomethyl)phenyl)quinoxalin-2-yl)-1H-pyrazol-1-yl)piperidin-1-yl)acetamido)pentanamido)-3,3-dimethylbutanoyl)-4-hydroxy-N-(4-(4-methylthiazol-5-yl)benzyl)pyrrolidine-2-carboxamide] it is above 10 µM.

The values above are taken from patent publication US20230093099A1, “COMPOUNDS AND METHODS OF TREATING CANCERS” (CULLGEN (SHANGHAI), INC., priority 2019, published 2023).
